In patent US20260041744A1, “Methods for Treating Pompe Disease” (Amicus Therapeutics, Inc., priority 2022, published 2026):
“Also recorded” adds a separate entry of the source.

Columns and labels:
[1] = tested on: Gaa KO mice; assay: Muscle biomarkers LAMP1, LC3, dysferlin in Gaa KO mice (staining, western blot); type: in vivo, mouse
Experimental: The therapeutic effects of ATB200 and miglustat were evaluated and compared against those of Alglucosidase alfa in Gaa KO mice. For the study, male Gaa KO (3-to 4-month old) and age-matched wild-type (WT) mice were used. Alglucosidase alfa was administered via bolus tail vein intravenous (IV) injection. In the co-administration regimen, miglustat was administered via oral gavage (PO) 30 minutes prior to the IV injection of ATB200. Treatment was given biweekly. Treated mice were sacrificed after 14 days from the last administration and various tissues were collected for further analysis. Table 11 summarizes the study design:
Tissue samples were also analyzed for biomarker changes following the methods discussed in: Khanna R, et al. (2012), “The pharmacological chaperone AT2220 increases recombinant human acid α-glucosidase uptake and glycogen reduction in a mouse model of Pompe disease,” Plos One 7(7): e40776; and Khanna, R et al. (2014), “The Pharmacological Chaperone AT2220 Increases the Specific Activity and Lysosomal Delivery of Mutant Acid a-Glucosidase, and Promotes Glycogen Reduction in a Transgenic Mouse Model of Pompe Disease,” PLOS ONE 9(7): e102092.
Similarly, intense LC3-positive aggregates in the muscle fibers of untreated Gaa KO mice signify the presence of autophagic zones and autophagy build-up. […] A similar observation was made when the expression of LC3 was assessed using western blot. […] In comparison, the effect of alglucosidase alfa on autophagy was modest.
Dysferlin, a protein involved in membrane repair and whose deficiency/mistrafficking is associated with a number of muscular dystrophies, was also assessed.

[2] = tested on: adult subjects with LOPD; assay: Study ATB200-07 (OLE): PROMIS-Fatigue; type: in vivo, human
Description: (§1) Analysis populations presented in this summary are 1) the OLE-ES Population (all subjects who satisfied the eligibility requirements (based on the inclusion and exclusion criteria) and entered Study ATB200-07 and 2) the OLE-FAS Population (all subjects who entered the OLE Study ATB200-07 who had both a valid ATB200-07 baseline and at least 1 post-baseline assessment for at least 1 of the 6 main efficacy endpoints [6MWD, sitting % predicted FVC, MMT-lower extremities, PROMIS-Physical Function, PROMIS-Fatigue, and GSGC]).

[3] = tested on: adult subjects with LOPD; assay: Study ATB200-07 (OLE): MMT lower extremity
Description: as §1

[4] = tested on: adult subjects with LOPD; assay: Study ATB200-07 (OLE): Hex4
Experimental: (§2) The Phase III double-blind PROPEL study (NCT03729362; ATB200-03) described in Examples 9 and 10 above compared the investigational two-component therapy cipaglucosidase alfa/miglustat (cipa/mig) with alglucosidase alfa/placebo (alglu) in adults with late-onset Pompe disease (LOPD) over 52 weeks. The ongoing open-label extension (OLE) of PROPEL (NCT04138277; ATB200-07) evaluates long-term safety and efficacy of cipa/mig. Outcomes include 6 minute walk distance (6MWD), forced vital capacity (FVC), creatine kinase (CK) and hexose tetrasaccharide (Hex4) levels and safety. Data are reported as change from the PROPEL baseline to OLE week 52 (104 weeks after the PROPEL baseline).

[5] = tested on: adult subjects with Pompe disease; assay: Pooled Studies ATB200-02/03/07 (Pool 2): sitting % predicted FVC by exposure interval
Experimental: The pooled efficacy analyses presented within this section include the outlier (Pool 2). […] Pooled efficacy analyses excluding the outlier subject (Pool 2A) were also performed.
No long-term data for the alglucosidase alfa/placebo group are available, as all subjects switched to cipaglucosidase alfa/miglustat in Study ATB200-07.
Efficacy data from the 3 adult Pompe disease clinical studies were pooled and analyzed to further support the long-term efficacy of cipaglucosidase alfa/miglustat in adult subjects. Data from non-ambulatory subjects (Study ATB200-02 Cohort 2) were not included in the pool as there was little overlap of efficacy endpoints for this group with the various ambulatory groups, such as 6MWD and lower MMT.
The 3 adult Pompe disease clinical studies were pooled as follows: • The cipaglucosidase alfa/miglustat treatment group consists of: • All ambulatory subjects in Study ATB200-02 (Cohorts 1, 3, and 4), • All subjects randomized to the cipaglucosidase alfa/miglustat treatment group in Study ATB200-03, and • All subjects enrolled in Study ATB200-07. • The alglucosidase alfa/placebo treatment group consists of: • All subjects randomized to the ERT treatment group in Study ATB200-03.

[6] = tested on: adult subjects with LOPD; assay: Study ATB200-07 (OLE): GSGC; type: in vivo, human
Description: as §1

[7] = tested on: adult subjects with late-onset Pompe disease (LOPD); assay: Study ATB200-03 (PROPEL): urinary hexose tetrasaccharide (Hex4/Glc4); type: in vivo, human; details: for urinary Hex4 reduction vs alglucosidase alfa: week 52
[8] = tested on: LOPD population (PROPEL target population); assay: Multi-level network meta-regression (ML-NMR) indirect treatment comparison, 6MWD and FVC change from baseline at week 52; parameters: species or system human
Experimental: Using patient-level data from the PROPEL randomized clinical trial (RCT) plus aggregate published data from other RCTs, Phase I/II and open label extension trials, a multi-level network meta-regression was conducted, adjusting for various baseline covariates including previous ERT duration. The base case scenario had covariates resembling the PROPEL population (naïve and ERT-experienced) and analyzed 6MWD and FVC change from baseline at 52 weeks.
An ITC providing relative effect estimates in the target population of interest (ie an LOPD population including a mix of ERT-naïve and ERT-experienced subjects as in the pivotal Phase III trial comparing Cipa+mig with Alglu [PROPEL]) was performed.
A systematic literature review (SLR) was conducted to identify relevant published clinical studies of ERTs in LOPD. Outcomes assessed were change from baseline in 6-minute walking distance (6MWD) (m) and in forced vital capacity (FVC; % predicted) at week 52, acknowledged by clinicians, HTA agencies and payers as key LOPD trial endpoints. Aggregate results on 6MWD and FVC change from baseline over time and baseline characteristics (age, gender, ethnicity, previous ERT duration, baseline 6MWD and baseline FVC) were extracted from included studies.
A multi-level network meta regression (ML-NMR) was performed, which is an extension of standard network meta-analyses (NMAs) that take into account the effect of study-level covariates, and that can be applied to any connected network with any mixture of individual patient-level data (IPD) and aggregate data. ML-NMR is an accepted method by the National Institute for Health and Care Excellence (NICE) in support of cost effectiveness analysis. Single-arm study results were matched to appropriate comparator arms of the comparative studies to allow for inclusion into the network. Mean treatment differences with associated 95% credible intervals (CrIs) were calculated for 6MWD and FVC change from baseline at week 52.
A base-case scenario was evaluated in which all covariates were set to the target population of the PROPEL trial. To study the impact of previous ERT duration on relative effects, ERT duration value was varied, keeping remaining covariate values as in the base-case scenario. A sensitivity analysis was performed by excluding all matched single-arm evidence from the network to assess its impact on the results.
Both fixed effects (FE) and random effects (RE) ML-NMR models were applied and the deviance information criteria (DIC) was used to assess goodness-of-fit of the models and to identify the appropriate model (FE or RE model) for the data. Models were implemented in a Bayesian framework using Stan with help of the R package multinma.
In the base-case scenario, the covariates were set to the baseline characteristics of the target population (ie the PROPEL trial; see Table 20), and time was set to 52 weeks.

[9] = tested on: adult subjects with LOPD; assay: Study ATB200-07 (OLE): PROMIS-Physical Function; type: in vivo, human
Description: as §1

[10] = tested on: adult subjects with LOPD; assay: Study ATB200-07 (OLE): CK
Experimental: as §2

[11] = Study ATB200-03 baseline, OLE-ES Population excluding Subject 4005-2511
[12] = change from ATB200-03 baseline at Week 52, decrease indicates improvement, OLE-ES excluding Subject 4005-2511
[13] = change from ATB200-03 baseline at Week 104, alglucosidase alfa/placebo group switched to cipaglucosidase alfa/miglustat at Week 52, OLE-ES excluding Subject 4005-2511
[14] = change from ATB200-03 baseline at Week 52, OLE-ES excluding Subject 4005-2511
[15] = OLE-ES Population, listed as cipaglucosidase alfa/miglustat
[16] = exposure interval >15 to ≤24 months, Pool 2, including the outlier
[17] = exposure interval >24 months, Pool 2, including the outlier
[18] = exposure interval ≤15 months, Pool 2, including the outlier

ATB200/miglustat: two-component therapy: cipaglucosidase alfa (ATB200) administered in conjunction with miglustat (AT2221), a stabilizer of cipaglucosidase alfa
LC3 II level / autophagy, western blot ([1]; mouse, in vivo): significant decrease in levels of LC3 II
LAMP1-positive vesicles in muscle fibers ([1]; vastus lateralis): led to more fibers with normalized LAMP1 level
LC3-positive aggregates in muscle fibers ([1]; vs alglucosidase alfa): preferentially reduced
dysferlin localisation in muscle fibers ([1]; vs alglucosidase alfa): able to restore dysferlin to the sarcolemma in a greater number of muscle fibers
PROMIS-Fatigue, mean BSL [2, 11]: 22.1
PROMIS-Fatigue, mean 52-wk CFB [2, 12]: −2.3
PROMIS-Fatigue, mean 104-wk CFB [2, 13]: −1.6
MMT (lower extremity score), mean BSL [3, 11]: 27.9
MMT (lower extremity score), mean 52-wk CFB [3, 14]: 1.6
MMT (lower extremity score), mean 104-wk CFB [3, 13]: 1.8
other main endpoints (MMT lower extremity, PROMIS-Physical Function, PROMIS-Fatigue, GSGC) course to Week 104 ([3]; treated through Studies ATB200-03 and ATB200-07): either improved or remained stable through Study ATB200-03, and then stabilized through Study ATB200-07
Hex4 course to Week 104 [4, 15]: CK and Hex4 declined substantially through Study ATB200-03, then stabilized through Study ATB200-07; also recorded: decreased substantially after subjects switched to cipaglucosidase alfa/miglustat through Week 104
Hex4, mean BSL [4, 11]: 4.6
Hex4, mean 52-wk CFB [4, 14]: −2.0
Hex4, mean 104-wk CFB [4, 13]: −2.1
mean (SD) change from baseline in % predicted FVC ([5]; exposure >15 to ≤24 months (n=97)): -0.88 (7.103)
mean (SD) change from baseline in % predicted FVC ([5]; exposure >24 months (n=68)): −2.55 (8.393)
Sitting % Predicted FVC Baseline, Mean [5, 16]: 66.89 % predicted
Sitting % Predicted FVC Baseline, Median [5, 16]: 67.50 % predicted
sitting % predicted FVC change from baseline, mean [5, 16]: −0.88 % predicted
sitting % predicted FVC change from baseline, median [5, 16]: −1.00 % predicted
Sitting % Predicted FVC Baseline, Mean [5, 17]: 67.15 % predicted
Sitting % Predicted FVC Baseline, Median [5, 17]: 69.00 % predicted
sitting % predicted FVC change from baseline, mean [5, 17]: −2.55 % predicted
sitting % predicted FVC change from baseline, median [5, 17]: −2.25 % predicted
Sitting % Predicted FVC Baseline, Mean ([5]; exposure interval ≤15 months, Pool 2, Efficacy Population including the outlier): 67.51 % predicted
Sitting % Predicted FVC Baseline, Median [5, 18]: 68.00 % predicted
sitting % predicted FVC change from baseline, median [5, 18]: −1.00 % predicted
sitting % predicted FVC change from baseline, mean ([5]; exposure interval ≤15 months, last available post-baseline value − baseline, Pool 2, including the outlier): −0.74 % predicted
mean (SD) change from baseline in % predicted FVC ([5]; exposure ≤15 months (n=139)): -0.74 (6.121)
GSGC, mean BSL [6, 11]: 14.4
GSGC, mean 52-wk CFB [6, 12]: −0.6
GSGC, mean 104-wk CFB [6, 13]: −1.0
mean change in urine Hex-4 after 52 weeks ([7]; combined ERT switch and ERT naïve population): −31.5%
urinary Hex4 reduction vs alglucosidase alfa [7]: reductions in CK and urinary Hex4 were significantly greater with ATB200/miglustat treatment at week 52
urinary Hex4 reduction vs alglucosidase alfa ([7]; listed as AT-GAA): significantly favored AT-GAA compared to alglucosidase alfa
urinary Hex4 reduction vs alglucosidase alfa ([7]; listed as cipaglucosidase alfa/miglustat): reductions in biomarkers of muscle damage (CK) and disease substrate (Hex4) also were significantly greater with cipaglucosidase alfa/miglustat compared with alglucosidase alfa
6MWD relative effect vs alglucosidase alfa ([8]; base case, 52 weeks): 16.3 meters
6MWD relative effect vs avalglucosidase alfa ([8]; base case, 52 weeks): 29.5 meters
FVC relative effect vs alglucosidase alfa ([8]; base case, 52 weeks): 3.1%
FVC relative effect vs avalglucosidase alfa ([8]; base case, 52 weeks): 2.8%
relative effect, sensitivity analysis (RCT data only), 6MWT and FVC ([8]; base-case scenario): statistically favourable versus Alglu; numerically unfavourable versus Aval; numerically favourable versus placebo (6MWT and FVC)
relative effect, main analysis, 6MWD and FVC ([8]; base-case scenario / by ERT duration, listed as Cipa+mig): statistically significant favourable effect versus Alglu and Aval; also recorded: numerically favourable effect versus placebo; also recorded: for FVC, Cipa+mig was only numerically favorable vs. Aval in the ERT-naïve setting
FVC relative effect vs Aval ([8]; naïve subjects): 0.4%
PROMIS-Physical Function, mean BSL [9, 11]: 67.0
PROMIS-Physical Function, mean 52-wk CFB [9, 14]: 2.2
PROMIS-Physical Function, mean 104-wk CFB [9, 13]: 2.3
CK course to Week 104 [10, 15]: CK and Hex4 declined substantially through Study ATB200-03, then stabilized through Study ATB200-07; also recorded: declined substantially after subjects switched to cipaglucosidase alfa/miglustat through Week 104
CK, mean BSL [10, 11]: 440.6
CK, mean 52-wk CFB [10, 14]: −129.1
CK, mean 104-wk CFB [10, 13]: −154.9
